Source: paper PMC11191095, “QSAR Reveals Decreased Lipophilicity of Polar Residues Determines the Selectivity of Antimicrobial Peptide Activity” (ACS Omega, 2024)
Converted amounts (≈) assume the structure as drawn. Where a SMILES comes first, the peptide text is derived from it.

Tests used:
Experiment in all cases: microbe, parasite or virus in culture
C. auris TDG 1912 = format: cell-based, Candida auris; conditions: Candidozyma auris, TDG1912, read-out: Modal MIC (antibiogram)
Description: (§1) Antimicrobial activity was evaluated against a panel of 18 pathogens consisting of eight Gram-negative strains (E. coli NCTC 12923, E. coli LEC001, Pseudomonas aeruginosa PAO1, P. aeruginosa NCTC 13437, Acinetobacter baumannii ATCC 17978, A. baumannii AYE, Klebsiella pneumoniae M6, K. pneumoniae NCTC 13368), four Gram-positive strains (Staphylococcus aureus ATCC 9144, S. aureus NCTC 13616, S. aureus USA300, S. aureus 1199B) and six fungi (Candida auris TDG 1912, C. albicans NCPF 8018, C. krusei NCPF 3876, C. tropicalis NCPF 8760, and C. parapsilosis NCPF 3209). Pathogens were grown in noncation adjusted Mueller Hinton broth (MHB, for bacteria) or Roswell Park Memorial Institute (RPMI 1640) + 2% glucose (for fungi) at 37 °C with 180 rpm shaking and maintained on solid media (tryptic soy agar for bacteria and Sabouraud dextrose agar for fungi). For an antibiogram, see Suppl.
(§2) The 46 peptides were serially diluted (128 to 2 μg/mL) in media down polypropylene 96-well plates. Bacteria or fungi, diluted from an overnight culture to an OD600 of 0.01, were added to the serially diluted peptides at a 1:1 ratio resulting in a starting cell density of ∼5 × 10^5 CFU/mL. Plates were incubated at 37 °C for 20 h, and the optical density was determined spectrophotometrically at 600 nm. Minimum inhibition concentrations (MICs) were determined from a minimum of three biological repeats and are reported in μg/mL as well as μM. […] The MIC50 or MIC90 is defined as the lowest peptide concentration that results in 50% or 90% growth inhibition over a 20 h treatment period, respectively.

C. albicans NCPF 3281 = format: cell-based; conditions: for MIC: Candida albicans, NCPF3281, read-out: Modal MIC (antibiogram); for Modal MIC50 / Modal MIC90: NCPF 3281, 20 h
Description: as §1, §2

C. glabrata NCPF 8018 = format: cell-based; conditions: for MIC: Nakaseomyces glabratus, NCPF8018, read-out: Modal MIC (antibiogram); for Modal MIC50 / Modal MIC90: NCPF 8018, 20 h
Description: as §1, §2

C. krusei NCPF 3876 = format: cell-based; conditions: for MIC: Pichia kudriavzevii, NCPF3876, read-out: Modal MIC (antibiogram); for Modal MIC50 / Modal MIC90: NCPF 3876, 20 h
Description: as §1, §2

[1] = tested on: C. parapsilosis NCPF 3209; format: cell-based; conditions: for MIC: Lodderomyces parapsilosis, NCPF3209, read-out: Modal MIC (antibiogram); for Modal MIC50 / Modal MIC90: NCPF 3209, 20 h
Description: as §1, §2

C. tropicalis NCPF 8760 = format: cell-based; conditions: for MIC: Candida tropicalis, NCPF8760, read-out: Modal MIC (antibiogram); for Modal MIC50 / Modal MIC90: NCPF 8760, 20 h
Description: as §1, §2

E. coli NCTC 12923 = format: cell-based, Escherichia coli; conditions: NCTC 12923, 20 h
Description: as §1, §2

A. baumannii ATCC 17978 = format: cell-based, Acinetobacter baumannii; conditions: ATCC 17978, 20 h
Description: as §1, §2

A. baumannii AYE = format: cell-based, Acinetobacter baumannii; conditions: AYE, 20 h
Description: as §1, §2

[2] = tested on: S. aureus (MSSA) ATCC 9144; format: cell-based, Staphylococcus aureus; conditions: ATCC 9144, 20 h
Description: as §1, §2

Row | Compound | MIC (C. auris TDG 1912) | MIC (C. albicans NCPF 3281) | MIC (C. glabrata NCPF 8018) | MIC (C. krusei NCPF 3876) | MIC [1] | MIC (C. tropicalis NCPF 8760) | Modal MIC50 (C. albicans NCPF 3281) | Modal MIC90 (C. albicans NCPF 3281) | Modal MIC50 (C. glabrata NCPF 8018) | Modal MIC90 (C. glabrata NCPF 8018) | Modal MIC50 (C. krusei NCPF 3876) | Modal MIC90 (C. krusei NCPF 3876) | Modal MIC50 [1] | Modal MIC90 [1] | Modal MIC50 (C. tropicalis NCPF 8760) | Modal MIC90 (C. tropicalis NCPF 8760) | Modal MIC (E. coli NCTC 12923) | Modal MIC (A. baumannii ATCC 17978) | Modal MIC (A. baumannii AYE) | Modal MIC [2]
1 | Cc1ccc(Oc2ccccc2-c2csc(N=C3NCCCN3)n2)c(C)c1 [Abafungin, reference compound] | > 128 µg/mL | > 128 µg/mL | > 128 µg/mL | 0.25 µg/mL (≈ 0.661 µM) | 0.25 to 0.5 µg/mL (≈ 0.661 to 1.32 µM) | > 128 µg/mL | – | – | – | – | – | – | – | – | – | – | – | – | – | –
2 | C[C@@H]1[C@H](O)[C@@H](C)/C=C/C=C/C=C/C=C/C=C/C=C/C=C/[C@H](O[C@@H]2O[C@H](C)[C@@H](O)[C@H](N)[C@@H]2O)C[C@@H]2O[C@](O)(C[C@@H](O)C[C@@H](O)[C@H](O)CC[C@@H](O)C[C@@H](O)CC(=O)O[C@H]1C)C[C@H](O)[C@H]2C(=O)O [Amphotericin B, reference compound] | 0.03 µg/mL (≈ 0.0325 µM) | 0.015 µg/mL (≈ 0.0162 µM) | 0.03 µg/mL (≈ 0.0325 µM) | 0.06 µg/mL (≈ 0.0649 µM) | ≤ 0.007 µg/mL | 0.03 µg/mL (≈ 0.0325 µM) | – | – | – | – | – | – | – | – | – | – | – | – | – | –
3 | CC(C)C[C@H](NC(=O)CNC(=O)[C@H](Cc1ccccc1)NC(=O)[C@H](CCCCN)NC(=O)[C@H](Cc1ccccc1)NC(=O)[C@H](C)NC(=O)[C@@H](N)CCCCN)C(=O)N[C@@H](CCCCN)C(=O)N[C@H](C(=O)N[C@H](C(N)=O)C(C)C)[C@@H](C)O [CPF-MW-10a] (H-KAFKFGLKTV-NH2) | – | – | – | – | – | – | > 110.8 µM | > 110.8 µM | > 110.8 µM | > 110.8 µM | > 110.8 µM | > 110.8 µM | > 110.8 µM | > 110.8 µM | > 110.8 µM | > 110.8 µM | – | – | – | –
4 | CC(C)C[C@H](NC(=O)CNC(=O)[C@H](Cc1ccccc1)NC(=O)[C@H](CCCCN)NC(=O)[C@H](Cc1ccccc1)NC(=O)[C@H](C)NC(=O)[C@@H](N)CCCCN)C(=O)N[C@@H](CCCCN)C(=O)N[C@H](C(=O)N[C@H](C(=O)NCC(=O)N[C@@H](CCCCN)C(N)=O)C(C)C)[C@@H](C)O [CPF-MW-12a] (H-KAFKFGLKTVGK-NH2) | – | – | – | – | – | – | > 95.5 µM | > 95.5 µM | > 95.5 µM | > 95.5 µM | > 95.5 µM | > 95.5 µM | > 95.5 µM | > 95.5 µM | > 95.5 µM | > 95.5 µM | – | – | – | –
5 | CC[C@H](C)[C@H](NC(=O)[C@H](CCCCN)NC(=O)[C@H](CC(C)C)NC(=O)[C@H](C)NC(=O)[C@H](C)NC(=O)[C@H](CCCCN)NC(=O)[C@H](CC(C)C)NC(=O)[C@H](C)NC(=O)[C@H](CCCCN)NC(=O)CN)C(=O)NCC(=O)N[C@@H](C)C(=O)N[C@@H](CC(N)=O)C(=O)N[C@H](C(=O)N[C@@H](CC(C)C)C(=O)NCC(=O)NCC(=O)N[C@@H](C)C(=O)N1CCC[C@H]1C(=O)N[C@@H](CCC(N)=O)C(N)=O)C(C)C [CPF-P3-20a] (H-GKALKAALKIGANVLGGAPQ-NH2) | – | – | – | – | – | – | > 65.7 µM | > 65.7 µM | > 65.7 µM | > 65.7 µM | > 65.7 µM | > 65.7 µM | > 65.7 µM | > 65.7 µM | > 65.7 µM | > 65.7 µM | 65.7 µM | 65.7 µM | 65.7 µM | –
6 | CC[C@H](C)C[C@H](C)CCCCCCCCC(=O)N[C@H]1C[C@@H](O)[C@@H](NCCN)NC(=O)[C@@H]2[C@@H](O)CCN2C(=O)[C@H]([C@H](O)CCN)NC(=O)[C@H]([C@H](O)[C@@H](O)c2ccc(O)cc2)NC(=O)[C@@H]2C[C@@H](O)CN2C(=O)[C@H]([C@@H](C)O)NC1=O [Caspofungin, reference compound] | 0.03 µg/mL (≈ 0.0274 µM) | ≤ 0.007 µg/mL | ≤ 0.007 µg/mL | ≤ 0.007 µg/mL | 0.125 µg/mL (≈ 0.114 µM) | ≤ 0.007 µg/mL | – | – | – | – | – | – | – | – | – | – | – | – | – | –
7 | OC(Cn1cncn1)(Cn1cncn1)c1ccc(F)cc1F [Fluconazole, reference compound] | > 128 µg/mL | 0.06 to 0.125 µg/mL (≈ 0.196 to 0.408 µM) | 4 µg/mL (≈ 13.1 µM) | 8 µg/mL (≈ 26.1 µM) | 0.25 µg/mL (≈ 0.816 µM) | 16 µg/mL (≈ 52.2 µM) | – | – | – | – | – | – | – | – | – | – | – | – | – | –
8 | C[C@@H](c1ncncc1F)[C@](O)(Cn1cncn1)c1ccc(F)cc1F [Voriconazole, reference compound] | 1 µg/mL (≈ 2.86 µM) | ≤ 0.007 µg/mL | 0.125 µg/mL (≈ 0.358 µM) | 0.06 µg/mL (≈ 0.172 µM) | ≤ 0.007 µg/mL | 0.5 µg/mL (≈ 1.43 µM) | – | – | – | – | – | – | – | – | – | – | – | – | – | –
9 | CC[C@H](C)[C@H](NC(=O)CNC(=O)[C@H](CCCCN)NC(=O)[C@H](Cc1c[nH]c2ccccc12)NC(=O)[C@H](Cc1c[nH]c2ccccc12)NC(=O)[C@@H](N)Cc1c[nH]c2ccccc12)C(=O)N[C@@H](CCCNC(=N)N)C(=O)NCC(=O)N[C@@H](Cc1ccc(O)cc1)C(=O)N[C@@H](CCCCN)C(=O)NCC(=O)NCC(=O)N[C@@H](Cc1ccc(O)cc1)C(=O)N[C@@H](CCCCN)C(=O)NCC(=O)N[C@@H](C)C(=O)N[C@@H](Cc1ccccc1)C(=O)N[C@@H](CCCCN)C(=O)N[C@@H](CCC(N)=O)C(=O)N[C@H](C(=O)N[C@@H](CCCCN)C(=O)N[C@@H](Cc1ccc(O)cc1)C(N)=O)[C@@H](C)O [W3(Os-C)a] (H-WWWKGIRGYKGGYKGAFKQTKY-NH2) | – | – | – | – | – | – | > 46.9 µM | > 46.9 µM | > 46.9 µM | > 46.9 µM | > 46.9 µM | > 46.9 µM | > 46.9 µM | > 46.9 µM | > 46.9 µM | > 46.9 µM | 23.5 µM | 11.7 µM | 5.9 µM | 11.7 µM
10 | CC[C@H](C)[C@H](NC(=O)CNC(=O)[C@H](CCCCN)NC(=O)[C@@H](N)Cc1c[nH]c2ccccc12)C(=O)N[C@@H](CCCNC(=N)N)C(=O)NCC(=O)N[C@@H](Cc1ccc(O)cc1)C(=O)N[C@@H](CCCCN)C(=O)NCC(=O)NCC(=O)N[C@@H](Cc1ccc(O)cc1)C(=O)N[C@@H](CCCCN)C(=O)NCC(=O)N[C@@H](C)C(=O)N[C@@H](Cc1ccccc1)C(=O)N[C@@H](CCCCN)C(=O)N[C@@H](CCC(N)=O)C(=O)N[C@H](C(=O)N[C@@H](CCCCN)C(=O)N[C@@H](Cc1ccc(O)cc1)C(N)=O)[C@@H](C)O [W(Os-C)a] (H-WKGIRGYKGGYKGAFKQTKY-NH2) | – | – | – | – | – | – | > 54.4 µM | > 54.4 µM | > 54.4 µM | > 54.4 µM | > 54.4 µM | > 54.4 µM | > 54.4 µM | > 54.4 µM | > 54.4 µM | > 54.4 µM | – | 27.2 µM | 13.6 µM | 54.4 µM
11 | CC[C@H](C)[C@H](NC(=O)[C@H](CCCCN)NC(=O)CNC(=O)[C@@H](N)CC(C)C)C(=O)N[C@@H](C)C(=O)N[C@@H](CCCCN)C(=O)N[C@H](C(=O)NCC(=O)N[C@@H](CC(C)C)C(=O)N[C@@H](CCCCN)C(N)=O)C(C)C [XPF10a] (H-LGKIAKVGLK-NH2) | – | – | – | – | – | – | > 120.6 µM | > 120.6 µM | > 120.6 µM | > 120.6 µM | > 120.6 µM | > 120.6 µM | > 120.6 µM | > 120.6 µM | > 120.6 µM | > 120.6 µM | – | – | – | –
